According to ChEMBL document CHEMBL2157992, “SAR studies of epoxycurcuphenol derivatives on leukemia CT-CD4 cells” (2012):

Assays:
Format in all cases: functional
[1] = system: Jurkat; experiment: Antiproliferative activity against human Jurkat cells assessed as proliferation index at 10 uM after 24 hrs using CFSE staining by flow cytometry relative to original parent cells (reference value: 2.48)
[2] = system: Jurkat; experiment: Antiproliferative activity against human Jurkat cells assessed as non proliferative fraction at 10 uM after 24 hrs using CFSE staining by flow cytometry (reference value: 0.59)
[3] = system: Jurkat; experiment: Antiproliferative activity against human Jurkat cells assessed as parent population at 10 uM after 24 hrs using CFSE staining by flow cytometry (reference value: 23.70 %)
[4] = system: Jurkat; experiment: Antiproliferative activity against human Jurkat cells assessed as 2nd generation cell population at 10 uM after 24 hrs using CFSE staining by flow cytometry relative to control
[5] = system: Jurkat; experiment: Antiproliferative activity against human Jurkat cells assessed as proliferation index of >/= 3rd generation cells at 10 uM after 24 hrs using CFSE staining by flow cytometry relative to original parent cells
[6] = system: Jurkat; experiment: Antiproliferative activity against human Jurkat cells assessed as 5th generation cell population at 10 uM after 24 hrs using CFSE staining by flow cytometry (reference value: 18.43 %)
[7] = system: Jurkat; experiment: Antiproliferative activity against human Jurkat cells assessed as 4th generation cell population at 10 uM after 24 hrs using CFSE staining by flow cytometry (reference value: 25. 99 %)
[8] = system: Jurkat; experiment: Inhibition of cell division in human Jurkat cells at 1 uM
[9] = system: Jurkat; experiment: Antiproliferative activity against human Jurkat cells assessed as 3rd generation cell population at 10 uM after 24 hrs using CFSE staining by flow cytometry relative to control

| SMILES | Ratio [1] | Ratio [2] | Activity [3] | Activity [4] | Ratio [5] | Activity [6] | Activity [7] | inhibition at 1 µM [8] | Activity [9] |
| --- | --- | --- | --- | --- | --- | --- | --- | --- | --- |
| CC1(C)OC1CCCc1cc(O)ccc1O (stereo unspecified) | 1.11 | 0.94 | 84.84% | 7.31% | 4.76 |  |  |  |  |
| C[C@@H](CC[C@H]1OC1(C)C)c1cc(O)ccc1O (relative stereo) | 6.47 | 0.39 | 6.02% |  | 10.81 | 64.37% |  |  |  |
| Cc1ccc([C@@H](C)CC[C@H]2OC2(C)C)c(O)c1 (relative stereo) | 4.77 | 0.41 | 8.71% |  | 9.67 | 38.84% |  |  |  |
| Cc1ccc([C@H](C)CC[C@H]2OC2(C)C)c(O)c1 (relative stereo) | 5.2 | 0.42 | 8.09% |  | 10.46 | 49.3% |  |  |  |
| CC[C@@H](CC[C@H]1OC1(C)C)c1ccccc1O (relative stereo) | 4.1 | 0.48 | 11.75% |  | 8.5 | 29.37% |  |  |  |
| CC[C@H](CC[C@H]1OC1(C)C)c1ccccc1O (relative stereo) | 4.38 | 0.46 | 10.46% |  | 9.29 | 33.67% |  |  |  |
| Cc1ccc([C@H](C)CC[C@@H]2CO2)c(O)c1 (relative stereo) | 5.86 | 0.37 | 6.23% |  | 10.07 | 47.87% |  |  |  |
| Cc1ccc([C@@H](C)CC[C@@H]2CO2)c(O)c1 (relative stereo) | 5.71 | 0.3 | 5.27% |  | 9.25 | 40.06% |  |  |  |
| CC[C@@H](CC[C@@H]1CO1)c1cc(O)ccc1O (relative stereo) | 5.06 | 0.4 | 7.95% |  | 10.11 | 48.54% |  |  |  |
| CC[C@H](CC[C@@H]1CO1)c1cc(O)ccc1O (relative stereo) | 5.01 | 0.42 | 8.46% |  | 10.24 | 47.67% |  |  |  |
| CC[C@H](CC[C@@H](C)O)c1ccccc1O (relative stereo) | 6.11 | 0.32 | 5.19% |  | 10.18 | 46.79% |  |  |  |
| Cc1cc(O)c([C@H](C)CC[C@H]2OC2(C)C)cc1O (relative stereo) | 1.62 | 0.87 | 53.81% |  | 8.05 |  | 13.9% | 100% |  |
| Cc1cc(O)c([C@@H](C)CC[C@H]2OC2(C)C)cc1O (relative stereo) | 1.36 | 0.92 | 67.44% |  | 6.14 |  |  | 100% | 17.04% |
| CC[C@H](CC[C@H]1OC1(C)C)c1cc(O)ccc1O (relative stereo) | 2.73 | 0.59 | 21.49% |  | 6.16 | 11.8% | 13.9% |  | 35.78% |
| CC[C@@H](CC[C@H]1OC1(C)C)c1cc(O)ccc1O (relative stereo) | 3.04 | 0.62 | 20.3% |  | 7.93 | 18.48% | 20.47% |  | 21.3% |
| Cc1cc(O)c([C@H](C)CC[C@@H]2CO2)cc1O (relative stereo) | 1.85 | 0.86 | 46.39% |  | 7.64 | 18.91% |  |  |  |
| Cc1cc(O)c([C@@H](C)CC[C@@H]2CO2)cc1O (relative stereo) | 1.09 | 0.98 | 89.59% |  | 5.7 |  |  |  | 6.73% |
